Tests used:
[1] = biological target: HIV-1 RT (Human immunodeficiency virus type 1 group M subtype B, UniProt P04585); assay: Amp-RT assay, AZT-TP and other NRTI-TPs, reference viruses; assay type: biochemical; set-up: The susceptibility of HIV-1 RT activity from viral isolates or plasma samples; made in house
[2] = system: HIV-1 RT; assay: as above; assay type: biochemical; details: for % inhibition (SEM) / inhibition of RT activity / inhibition of activity: 1 μM AZT-TP; for inhibition of RT activity: ~1.882×10^−7 to ~1.882×10^−5 units of RT activity per ml
[3] = MNR HIV-1SUM12 (F77L, F116Y, Q151M)
[4] = MNR HIV-1SUM13 (A62V, V75I, F77L, F116Y, Q151M)
[5] = classical AZT-resistant HIV-1 R598 (D67N, V106A, L210W, L214F, T215Y)
[6] = classical AZT-resistant HIV-1RTMC/MT2 (D67N, K70R, T215F, K219Q)

## Cc1cn([C@H]2C[C@H](N=[N+]=[N-])[C@@H](COP(=O)(O)OP(=O)(O)OP(=O)(O)O)O2)c(=O)[nH]c1=O [AZT-TP, AZT-triphosphate]
[1]; 1 μM AZT-TP, HIV-1HXB2, WT
  % inhibition (SEM): 98 (±2) %
[1]; WT HIV-1HXB2
  IC50: 0.5 µM
  IC90: 0.9 µM
[2]; HIV-1LAI, WT
  % inhibition (SEM): 99.9 (±0.02) %
[2]; HIV-1M184Vpitt, M184V
  % inhibition (SEM): 91.1 (±3.3) %
[2]; HIV-1R598, D67N, V106A, L210W, L214F, T215Y
  % inhibition (SEM): 97.8 (±2.2) %
[2]; HIV-1RTMC/MT-2, D67N, K70R, T215F, K219Q
  % inhibition (SEM): 91.5 (±8.5) %
[2]; HIV-1RTMDRI/MT-2, M41L, L74V, V106A, T215Y
  % inhibition (SEM): 94.6 (±5.4) %
[2]; HIV-1RTMF/MT-2, T215Y
  % inhibition (SEM): 96 (±4) %
[2]; HIV-1SUM8, Q151M
  % inhibition (SEM): 26.6 (±6.1) %
[2]; HIV-1SUM8
  inhibition of RT activity: 50%
[2]; HIV-1SUM9, WT
  % inhibition (SEM): 95.8 (±1.4) %
[2]; HIV-1SUM12, F77L, F116V, Q151M
  % inhibition (SEM): 13.1 (±5.5) %
[2]; HIV-1SUM12 and HIV-1SUM13
  inhibition of RT activity: < 15%
[2]; HIV-1SUM13, A62V, V75I, F77L, F116Y, Q151M
  % inhibition (SEM): 12.9 (±2.8) %
[2]; HIV-1xxBRUpitt, WT
  % inhibition (SEM): 93.5 (±6.5) %
[2]; WT HIV-1SUM9
  inhibition of RT activity: > 85%
  IC50: 0.5 µM
  IC90: 1 µM
[2]; WT RT (HIV-1SUM9) alone
  inhibition of activity: 91%
[2]; mixture containing 10% MNR HIV-1SUM13 in WT HIV-1SUM9
  inhibition of activity: 17%
[2]; mixture containing 30% or more of MNR HIV-1
  inhibition of activity: No inhibition
[2]; 1 μM AZT-triphosphate, MNR strains
  reduction of the level of DNA products: ≤ 30%
[2]; 1 μM AZT-triphosphate, wild-type and classical reverse transcriptase mutant strains
  reduction of the amount of DNA products: ≥ 90%
[2]; MNR HIV-1SUM8 (Q151M)
  IC50: 2.5 µM
  IC90: 4.5 µM
  fold resistance (IC90) as compared to the mean IC values of WT HIV-1: (4.7) fold
[2]; [3]
  IC50: 11 µM
  IC90: 18 µM
  fold resistance (IC90) as compared to the mean IC values of WT HIV-1: (18.6) fold
[2]; [4]
  IC50: 18 µM
  IC90: 45 µM
  fold resistance (IC90) as compared to the mean IC values of WT HIV-1: (46.6) fold
[2]; WT HIV-1LAI
  IC50: 0.5 µM
  IC90: 0.9 µM
[2]; [5]
  IC50: 0.5 µM
  IC90: 1 µM
[2]; [6]
  IC50: 0.5 µM
  IC90: 1 µM

From patent publication US7691572B2, “Method and kit for detecting resistance to antiviral drugs” (priority 1998, dated 2010)
